We go through 22 molecules from US9447038B2 (SANOFI, priority 2012, dated 2016).

Structures are written as SMILES.

The target in one experiment is human CXCR3-A receptor (Homo sapiens (Human), UniProt P49682). Kind of experiment: 125I-CXCL10 competition radioligand binding assay.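 Also: One-hour incubation of membranes with tracer, bound radioligand separated by glass fibre filtration, IC50 derived from four-parameter nonlinear fit of competition curves.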
Chain of human CXCR3-A receptor (P49682 whole entry): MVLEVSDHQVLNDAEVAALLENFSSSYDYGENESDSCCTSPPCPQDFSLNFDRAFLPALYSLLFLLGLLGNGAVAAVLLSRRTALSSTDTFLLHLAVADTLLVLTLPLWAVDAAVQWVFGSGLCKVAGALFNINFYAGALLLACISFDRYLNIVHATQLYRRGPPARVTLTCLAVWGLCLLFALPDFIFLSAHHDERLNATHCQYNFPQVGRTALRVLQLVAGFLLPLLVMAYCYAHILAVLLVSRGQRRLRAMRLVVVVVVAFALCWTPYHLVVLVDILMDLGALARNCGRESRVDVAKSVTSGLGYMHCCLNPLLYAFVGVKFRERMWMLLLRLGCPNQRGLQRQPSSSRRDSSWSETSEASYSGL
Settings: not given
As a reminder, the IC50 is the concentration that gives 50% inhibition. On to `CCCCN(Cc1ccc(OCCN2C(=O)CCC2=O)c(OC)c1)C(CC(=O)O)c1ccc(Cl)cc1` (stereo not shown) [Example 38, 3-(Butyl-{4-[2-(2,5-dioxo-pyrrolidin-1-yl)-ethoxy]-3-methoxy-benzyl}-amino)-3-(4-chloro-phenyl)-propionic acid], for which the IC50 was 45 nM.

The same experiment, now with this note: displacement of 125I-CXCL10 from membranes of CHO cells expressing human recombinant CXCR3-A.
`COc1cc(CN(CC2CC2)C(CC(=O)O)c2ccc(Cl)cc2)ccc1OCCN1C(=O)CCC1=O` (stereo not shown) [Example 36, 3-(4-Chloro-phenyl)-3-(cyclopropylmethyl-{4-[2-(2,5-dioxo-pyrrolidin-1-yl)-ethoxy]-3-methoxy-benzyl}-amino)-propionic acid]: the IC50 was 20 nM.

On to `CCCN(Cc1ccc(OCCN2C(=O)CCC2=O)c(OC)c1)C(CC(=O)O)c1ccc(Cl)cc1` (stereo not shown) [Example 37, 3-(4-Chloro-phenyl)-3-({4-[2-(2,5-dioxo-pyrrolidin-1-yl)-ethoxy]-3-methoxy-benzyl}-propyl-amino)-propionic acid], for which the IC50 is 20 nM.

For `COc1cc(CN(CC2CCCC2)C(CC(=O)O)c2ccc(Cl)cc2)ccc1OCCN1C(=O)CCC1=O` (stereo not shown) [Example 39, 3-(4-Chloro-phenyl)-3-(cyclopentylmethyl-{4-[2-(2,5-dioxo-pyrrolidin-1-yl)-ethoxy]-3-methoxy-benzyl}-amino)-propionic acid], the IC50 came out at 71 nM.

`COc1cc(CN(CC2CCCCC2)C(CC(=O)O)c2ccc(Cl)cc2)ccc1OCCN1C(=O)CCC1=O` (stereo not shown) [Example 40, 3-(4-Chloro-phenyl)-3-(cyclohexylmethyl-{4-[2-(2,5-dioxo-pyrrolidin-1-yl)-ethoxy]-3-methoxy-benzyl}-amino)-propionic acid]: the IC50 amounted to 40 nM.

Consider `CCCN(Cc1ccc(OCCN2C(=O)CCC2=O)c(OC)c1)C(CC(=O)O)c1ccc(Cl)c(F)c1` (stereo not shown) [Example 41, 3-(4-Chloro-3-fluoro-phenyl)-3-({4-[2-(2,5-dioxo-pyrrolidin-1-yl)-ethoxy]-3-methoxy-benzyl}-propyl-amino)-propionic acid], for which the IC50 is 107 nM.

Regarding `CCCCN(Cc1ccc(OCCN2C(=O)CCC2=O)c(OC)c1)C(CC(=O)O)c1ccc(Cl)c(F)c1` (stereo not shown) [Example 43, 3-(Butyl-{4-[2-(2,5-dioxo-pyrrolidin-1-yl)-ethoxy]-3-methoxy-benzyl}-amino)-3-(4-chloro-3-fluoro-phenyl)-propionic acid], the IC50 was found to be 23 nM.

`COc1cc(CN(CC2CCCCC2)C(CC(=O)O)c2ccc(Cl)c(F)c2)ccc1OCCN1C(=O)CCC1=O` (stereo not shown) [Example 44, 3-(4-Chloro-3-fluoro-phenyl)-3-(cyclohexylmethyl-{4-[2-(2,5-dioxo-pyrrolidin-1-yl)-ethoxy]-3-methoxy-benzyl}-amino)-propionic acid]: the IC50 came to 43 nM.

With `COc1cc(CN(CC2CC2)C(CC(=O)O)c2ccc(Cl)c(Cl)c2)ccc1OCCN1C(=O)CCC1=O` (stereo not shown) [Example 45, 3-(Cyclopropylmethyl-{4-[2-(2,5-dioxo-pyrrolidin-1-yl)-ethoxy]-3-methoxy-benzyl}-amino)-3-(3,4-dichloro-phenyl)-propionic acid], the IC50 was determined as 66 nM.

As for `CCCN(Cc1ccc(OCCN2C(=O)CCC2=O)c(OC)c1)C(CC(=O)O)c1ccc(Cl)c(Cl)c1` (stereo not shown) [Example 46, 3-(3,4-Dichloro-phenyl)-3-({4-[2-(2,5-dioxo-pyrrolidin-1-yl)-ethoxy]-3-methoxy-benzyl}-propyl-amino)-propionic acid], the IC50 is 118 nM.

Take `CCCCN(Cc1ccc(OCCN2C(=O)CCC2=O)c(OC)c1)C(CC(=O)O)c1ccc(Cl)c(Cl)c1` (stereo not shown) [Example 48, 3-(Butyl-{4-[2-(2,5-dioxo-pyrrolidin-1-yl)-ethoxy]-3-methoxy-benzyl}-amino)-3-(3,4-dichloro-phenyl)-propionic acid]: the IC50 amounted to 61 nM.

Take `COc1cc(CN(CC2CCCC2)C(CC(=O)O)c2ccc(Cl)c(Cl)c2)ccc1OCCN1C(=O)CCC1=O` (stereo not shown) [Example 49, 3-(Cyclopentylmethyl-{4-[2-(2,5-dioxo-pyrrolidin-1-yl)-ethoxy]-3-methoxy-benzyl}-amino)-3-(3,4-dichloro-phenyl)-propionic acid]: the IC50 was determined as 61 nM.

`COc1cc(CN(CC2CCCCC2)C(CC(=O)O)c2ccc(Cl)c(Cl)c2)ccc1OCCN1C(=O)CCC1=O` (stereo not shown) [Example 50, 3-(Cyclohexylmethyl-{4-[2-(2,5-dioxo-pyrrolidin-1-yl)-ethoxy]-3-methoxy-benzyl}-amino)-3-(3,4-dichloro-phenyl)-propionic acid]: the IC50 amounted to 98 nM.

Take `O=C(O)CC(c1ccc(Cl)cc1)N(Cc1ccc(OCCN2C(=O)CCC2=O)c(F)c1)CC1CC1` (stereo not shown) [Example 51, 3-(4-Chloro-phenyl)-3-(cyclopropylmethyl-{4-[2-(2,5-dioxo-pyrrolidin-1-yl)-ethoxy]-3-fluoro-benzyl}-amino)-propionic acid]: the concentration for half-maximal inhibition (IC50) came to 133 nM.

As for `CCCN(Cc1ccc(OCCN2C(=O)CCC2=O)c(F)c1)[C@H](CC(=O)O)c1ccc(Cl)cc1` [Example 52, (R)-3-(4-Chloro-phenyl)-3-({4-[2-(2,5-dioxo-pyrrolidin-1-yl)-ethoxy]-3-fluoro-benzyl}-propyl-amino)-propionic acid], the IC50 was determined as 990 nM.

`CC(C)CN(Cc1ccc(OCCN2C(=O)CCC2=O)c(F)c1)C(CC(=O)O)c1ccc(Cl)cc1` (stereo not shown) [Example 53, 3-(4-Chloro-phenyl)-3-({4-[2-(2,5-dioxo-pyrrolidin-1-yl)-ethoxy]-3-fluoro-benzyl}-isobutyl-amino)-propionic acid]: the IC50 is 125 nM.

With `CCCCN(Cc1ccc(OCCN2C(=O)CCC2=O)c(F)c1)C(CC(=O)O)c1ccc(Cl)cc1` (stereo not shown) [Example 54, 3-(Butyl-{4-[2-(2,5-dioxo-pyrrolidin-1-yl)-ethoxy]-3-fluoro-benzyl}-amino)-3-(4-chloro-phenyl)-propionic acid], the IC50 stood at 306 nM.

Regarding `O=C(O)C[C@H](c1ccc(Cl)cc1)N(Cc1ccc(OCCN2C(=O)CCC2=O)c(F)c1)CC1CCC1` [Example 55, (R)-3-(4-Chloro-phenyl)-3-(cyclobutylmethyl-{4-[2-(2,5-dioxo-pyrrolidin-1-yl)-ethoxy]-3-fluoro-benzyl}-amino)-propionic acid], the 50% inhibitory concentration (IC50) worked out at 294 nM.

For `O=C(O)CC(c1ccc(Cl)cc1)N(Cc1ccc(OCCN2C(=O)CCC2=O)c(F)c1)CC1CCCC1` (stereo not shown) [Example 56, 3-(4-Chloro-phenyl)-3-(cyclopentylmethyl-{4-[2-(2,5-dioxo-pyrrolidin-1-yl)-ethoxy]-3-fluoro-benzyl}-amino)-propionic acid], the IC50 amounted to 52 nM.

As to `O=C(O)CC(c1ccc(Cl)cc1)N(Cc1ccc(OCCN2C(=O)CCC2=O)c(F)c1)CC1CCCCC1` (stereo not shown) [Example 57, 3-(4-Chloro-phenyl)-3-(cyclohexylmethyl-{4-[2-(2,5-dioxo-pyrrolidin-1-yl)-ethoxy]-3-fluoro-benzyl}-amino)-propionic acid], the half-maximal inhibitory concentration (IC50) is 212 nM.

Take `CCCN(Cc1ccc(OCCN2C(=O)CCC2=O)c(F)c1)C(CC(=O)O)c1ccc(Cl)c(F)c1` (stereo not shown) [Example 58, 3-(4-Chloro-3-fluoro-phenyl)-3-({4-[2-(2,5-dioxo-pyrrolidin-1-yl)-ethoxy]-3-fluoro-benzyl}-propyl-amino)-propionic acid]: the IC50 was 183 nM.

Regarding `CCCCN(Cc1ccc(OCCN2C(=O)CCC2=O)c(F)c1)C(CC(=O)O)c1ccc(Cl)c(F)c1` (stereo not shown) [Example 59, 3-(Butyl-{4-[2-(2,5-dioxo-pyrrolidin-1-yl)-ethoxy]-3-fluoro-benzyl}-amino)-3-(4-chloro-3-fluoro-phenyl)-propionic acid], the IC50 stood at 109 nM.
